pIC50: −log10 of the molar value. Where “and” joins values, the source holds several entries; their conditions need not be identical. Identical values can stand only once.
Tests used:
[1] = biological target: T1, telomerase (Homo sapiens (Human), UniProt O14746); test: Primer extension assay for telomerase activity; format: biochemical; conditions: for pIC50: purified telomerase, dGTP 50 μM
Protocol: Purified human telomerase was incubated with d(TTAGGG)3 (SEQ ID NO: 1) and deoxy-nucleoside triphosphates for 90 minutes at 37° C. All reactions were done in the presence of 200 dTTP and 10 μM dATP (50,000 cpm/pmol a-^33P-dATP). Activity was determined by incubating affinity purified telomerase extract with 1 μM primer [d(TTAGGG)3] (SEQ ID NO: 1), 200 μM dTTP, 50 μM dGTP, 10 μM dATP, 10 μCi [α-^33P]dATP (2000-4000 Ci/mmol) in a buffer containing 50 mM (N-2-hydroxyethyl piperazine-N′-3 propanesulfonic acid)-NaOH pH 8.5, 1 mM MgCl2, 1 mM DTT, 5% glycerol, 0.5 mM EGTA and 100 mM KOAc in a final reaction volume of 40 μl. Primer extension products were analyzed on a 15% polyacrylamide gel containing 7 M urea. A characteristic telomerase ladder has multiple bands. If a compound is not a substrate then (TTAGGG)3TTA (21 nt) (SEQ ID NO: 2). If a compound is a chain terminator then (TTAGGG)3TTAG* (22 nt) (SEQ ID NO: 3).
Purified human telomerase was incubated with d(TTAGGG)3 (SEQ ID NO: 1) and deoxy-nucleoside triphosphates for 90 minutes at 37° C. All reactions were done in the presence of 200 dTTP and 10 μM dATP (50,000 cpm/pmol a-^33P-dATP). Activity was determined by incubating affinity purified telomerase extract with […] primer [d(TTAGGG)3] (SEQ ID NO: 1), […] [α-^33P]dATP (2000-4000 Ci/mmol) in a buffer containing 50 mM (N-2-hydroxyethyl piperazine-N′-3 propanesulfonic acid)-NaOH pH 8.5, 1 mM MgCl2, 1 mM DTT, 5% glycerol, 0.5 mM EGTA and 100 mM KOAc in a final reaction volume of 40 μl. Primer extension products were analyzed on a 15% polyacrylamide gel containing 7 M urea. A characteristic telomerase ladder has multiple bands. If a compound is not a substrate then (TTAGGG)3TTA (21 nt) (SEQ ID NO: 2). If a compound is a chain terminator then (TTAGGG)3TTAG* (22 nt) (SEQ ID NO: 3).

[2] = biological target: T1, telomerase; test: Flash plate (Flashplate) telomerase assay; format: biochemical; conditions: affinity purified telomerase extract, 20 μM dGTP; read-out: Flashplate IC 50
Protocol: Determining IC50 for PMPGpp, (R)-PMPGpp and (S)-PMPGpp. Telomerase activity was determined using the “flash-plate” assay with concentrations of PMPGpp ranging from 0.05 μM to 50 μM.
Compound was pre-incubated with affinity purified telomerase extract, 100 nM primer [5′ biotin-d(AATCCGTCGAGCAGAGTT)] (SEQ ID NO: 4), 120 μM dTTP, 20 μM dGTP, […], in a buffer containing 50 mM Tris-Acetate (pH 8.2), 1 mM MgCl2, 1 mM DTT, 0.5 mM EGTA and 150 mM KOAc, 5.4 nM ^33P-labeled [d([…])] (SEQ ID NO: 5 (6×10^9 cpm/nmol) in a final reaction volume of 30 μl. Incubations were done for 90 min at 37° C. Following stoppage of the reaction with EDTA (10 mM), the reaction products were captured in a streptavidin coated 96 well FlashPlate. After a 2 hr capture period for the primer, the plates were washed five times (2×SSC, 0.1% SDS, 10 mM EDTA) and counted.
Compound was pre-incubated with affinity purified telomerase extract, 100 nM primer [5′ biotin-d(AATCCGTCGAGCAGAGTT)] (SEQ ID NO: 4), 120 μM dTTP, 20 μM dGTP, 10 μM dATP, in a buffer containing 50 mM Tris-Acetate (pH 8.2), 1 mM MgCl2, 1 mM DTT, 0.5 mM EGTA and 150 mM KOAc, 5.4 nM ^33P-labeled [d([…])] […]

T1 sequence (O14746 whole entry): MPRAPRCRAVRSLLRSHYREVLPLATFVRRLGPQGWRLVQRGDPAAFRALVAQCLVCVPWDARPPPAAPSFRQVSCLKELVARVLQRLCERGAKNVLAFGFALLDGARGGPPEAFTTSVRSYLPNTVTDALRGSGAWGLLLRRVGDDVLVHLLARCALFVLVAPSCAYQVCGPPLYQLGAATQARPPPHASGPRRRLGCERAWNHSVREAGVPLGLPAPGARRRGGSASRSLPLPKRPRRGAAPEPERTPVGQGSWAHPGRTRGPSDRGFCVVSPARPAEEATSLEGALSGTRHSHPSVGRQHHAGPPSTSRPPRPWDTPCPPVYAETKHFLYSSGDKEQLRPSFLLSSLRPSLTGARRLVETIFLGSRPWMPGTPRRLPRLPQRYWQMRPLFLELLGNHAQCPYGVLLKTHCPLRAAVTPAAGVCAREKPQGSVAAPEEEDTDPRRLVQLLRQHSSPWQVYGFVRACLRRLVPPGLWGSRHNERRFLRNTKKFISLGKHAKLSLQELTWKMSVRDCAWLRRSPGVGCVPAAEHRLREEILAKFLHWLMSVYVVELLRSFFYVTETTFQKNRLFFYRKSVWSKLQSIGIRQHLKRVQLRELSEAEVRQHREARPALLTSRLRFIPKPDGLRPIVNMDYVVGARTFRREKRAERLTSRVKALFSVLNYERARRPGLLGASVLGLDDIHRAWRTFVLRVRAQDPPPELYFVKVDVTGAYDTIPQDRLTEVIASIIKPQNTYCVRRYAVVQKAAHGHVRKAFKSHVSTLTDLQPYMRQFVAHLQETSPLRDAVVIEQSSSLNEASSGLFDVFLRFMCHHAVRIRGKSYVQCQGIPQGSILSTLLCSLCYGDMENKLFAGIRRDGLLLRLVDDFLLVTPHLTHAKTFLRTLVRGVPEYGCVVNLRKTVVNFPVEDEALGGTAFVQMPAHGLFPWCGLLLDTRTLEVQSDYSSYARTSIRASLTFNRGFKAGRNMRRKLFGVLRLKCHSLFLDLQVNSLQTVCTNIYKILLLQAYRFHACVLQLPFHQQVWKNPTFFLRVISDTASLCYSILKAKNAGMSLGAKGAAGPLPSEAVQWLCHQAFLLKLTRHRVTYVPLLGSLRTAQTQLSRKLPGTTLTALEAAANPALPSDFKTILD

Row | SMILES | Primer Ext. Assay Notes: telomerase substrate / chain terminator ([1]; listed as PMPGpp) | Primer Ext. Assay Notes: telomerase substrate / chain terminator ([1]; listed as R-PMPGpp) | pIC50 [1] | pIC50 [2]
1 | CC(Cn1cnc2c(=O)[nH]c(N)nc21)OCP(=O)(O)OP(=O)(O)OP(=O)(O)O (single isomer, unassigned) [ID#142692] | acts as a chain terminator | resulting in chain termination | ~6.00 and 6.00 | 6.00
2 | CC(Cn1cnc2c(=O)[nH]c(N)nc21)OCP(=O)(O)OP(=O)(O)OP(=O)(O)O (single isomer, unassigned) [ID#142751, PMPG free acid, S form] | – | – | 4.87 | 4.85
